Measured values: patent US11787825B2 (priority 2021, dated 2023)
Converted amounts (≈) assume the structure as drawn. Read-outs that look alike come from different tables or passages of the source. Marks after values point to notes of the source that are not given here.

Key:
physchem = conditions: 25 °C, thermodynamic from solid
[1] = Beagle, in vivo, po; for Dog F % (suspension): pH 2
[2] = 0.1N HCL, 1.0% DMSO, 24-hour incubation at ambient temperature, maximum theoretical compound concentration 100 μM
[3] = 1×PBS buffer (pH 7.4), 1.0% DMSO, 24-hour incubation at ambient temperature, maximum theoretical compound concentration 100 μM
[4] = fasted state simulated intestinal fluid (FaSSIF), fassif
[5] = fed state simulated intestinal fluid (FeSSIF), fessif

SMILES | pH 2 solubility [2] [μM] | pH 7 solubility [3] [μM] | solubility (physchem; [4]) [µg/mL] | solubility (physchem; [5]) [µg/mL] | Dog F % (suspension) [1] [%] | pH 2 solubility (pH 2) | pH 7 solubility (pH 7.4) | solubility (physchem; fassif) [µg/mL] | solubility (physchem; fessif) [µg/mL] | Dog F % (solution) [1]
CC(C)(C#Cc1ccc(-c2ccc(Cl)c3c(N(C(=O)CCCN(CCC(=O)O)C(=O)OCOP(=O)(O)O)S(C)(=O)=O)nn(CC(F)(F)F)c23)c([C@H](Cc2cc(F)cc(F)c2)NC(=O)Cn2nc(C(F)(F)F)c3c2C(F)(F)[C@@H]2C[C@H]32)n1)S(C)(=O)=O [Compound 31, 3-((4-(N-(4-chloro-7-(2-((S)-1-(2-((3bS,4aR)-5,5-difluoro-3-(trifluoromethyl)-3b,4,4a,5-tetrahydro-1H-cyclopropa[3,4]cyclopenta[1,2-c]pyrazol-1-yl)acetamido)-2-(3,5-difluorophenyl)ethyl)-6-(3-methyl-3-(methylsulfonyl)but-1-yn-1-yl)pyridin-3-yl)-1-(2,2,2-trifluoroethyl)-1H-indazol-3-yl)methylsulfonamido)-4-oxobutyl)(((phosphonooxy)methoxy)carbonyl)amino)propanoic acid] | 1 | 79 | 2930 (≈ 2290 µM) | 902 (≈ 705 µM) | 15 | – | – | – | – | –
Cc1cc(CC(=O)O)c(C(C)(C)CC(=O)N(c2nn(CC(F)(F)F)c3c(-c4ccc(C#CC(C)(C)S(C)(=O)=O)nc4[C@H](Cc4cc(F)cc(F)c4)NC(=O)Cn4nc(C(F)(F)F)c5c4C(F)(F)[C@@H]4C[C@H]54)ccc(Cl)c23)S(C)(=O)=O)c(OP(=O)(O)O)c1 [Compound 44] | – | – | – | – | 27 | 1/100 μM | 1/100 μM | 2870 (≈ 2210 µM) | 460 (≈ 355 µM) | –
CC(C)(Cc1ccccc1OP(=O)(O)O)C(=O)N(c1nn(CC(F)(F)F)c2c(-c3ccc(C#CC(C)(C)S(C)(=O)=O)nc3[C@H](Cc3cc(F)cc(F)c3)NC(=O)Cn3nc(C(F)(F)F)c4c3C(F)(F)[C@@H]3C[C@H]43)ccc(Cl)c12)S(C)(=O)=O [Compound 46, 2-(3-(N-(4-chloro-7-(2-((S)-1-(2-((3bS,4aR)-5,5-difluoro-3-(trifluoromethyl)-3b,4,4a,5-tetrahydro-1H-cyclopropa[3,4]cyclopenta[1,2-c]pyrazol-1-yl)acetamido)-2-(3,5-difluorophenyl)ethyl)-6-(3-methyl-3-(methylsulfonyl)but-1-yn-1-yl)pyridin-3-yl)-1-(2,2,2-trifluoroethyl)-1H-indazol-3-yl)methylsulfonamido)-2,2-dimethyl-3-oxopropyl)phenyl dihydrogen phosphate] | – | – | – | – | 10 | 1/66 μM | 1/66 μM | 700 | > 2150 | –
CC(C)(CCN(CC(=O)O)C(=O)OCOP(=O)(O)O)C(=O)N(c1nn(CC(F)(F)F)c2c(-c3ccc(C#CC(C)(C)S(C)(=O)=O)nc3[C@H](Cc3cc(F)cc(F)c3)NC(=O)Cn3nc(C(F)(F)F)c4c3C(F)(F)[C@@H]3C[C@H]43)ccc(Cl)c12)S(C)(=O)=O [Compound 43, N-(4-(N-(4-chloro-7-(2-((S)-1-(2-((3bS,4aR)-5,5-difluoro-3-(trifluoromethyl)-3b,4,4a,5-tetrahydro-1H-cyclopropa[3,4]cyclopenta[1,2-c]pyrazol-1-yl)acetamido)-2-(3,5-difluorophenyl)ethyl)-6-(3-methyl-3-(methylsulfonyl)but-1-yn-1-yl)pyridin-3-yl)-1-(2,2,2-trifluoroethyl)-1H-indazol-3-yl)methylsulfonamido)-3,3-dimethyl-4-oxobutyl)-N-(((phosphonooxy)methoxy)carbonyl)glycine] | 2 | 100 | 2900 (≈ 2250 µM) | > 5770 | 23 | – | – | – | – | –
CC(C)(C#Cc1ccc(-c2ccc(Cl)c3c(N(C(=O)CCCN(CC(=O)O)C(=O)OCOP(=O)(O)O)S(C)(=O)=O)nn(CC(F)(F)F)c23)c([C@H](Cc2cc(F)cc(F)c2)NC(=O)Cn2nc(C(F)(F)F)c3c2C(F)(F)[C@@H]2C[C@H]32)n1)S(C)(=O)=O [Compound 30, N-(4-(N-(4-chloro-7-(2-((S)-1-(2-((3bS,4aR)-5,5-difluoro-3-(trifluoromethyl)-3b,4,4a,5-tetrahydro-1H-cyclopropa[3,4]cyclopenta[1,2-c]pyrazol-1-yl)acetamido)-2-(3,5-difluorophenyl)ethyl)-6-(3-methyl-3-(methylsulfonyl)but-1-yn-1-yl)pyridin-3-yl)-1-(2,2,2-trifluoroethyl)-1H-indazol-3-yl)methylsulfonamido)-4-oxobutyl)-N-(((phosphonooxy)methoxy)carbonyl)glycine] | 1 | 100 | > 1100 | 5830 (≈ 4600 µM) | 18 | – | – | – | – | 18^c %
CN(C(=O)N(c1nn(CC(F)(F)F)c2c(-c3ccc(C#CC(C)(C)S(C)(=O)=O)nc3[C@H](Cc3cc(F)cc(F)c3)NC(=O)Cn3nc(C(F)(F)F)c4c3C(F)(F)[C@@H]3C[C@H]43)ccc(Cl)c12)S(C)(=O)=O)c1ncccc1COP(=O)(O)O [Compound 53, (2-(3-(4-chloro-7-(2-((S)-1-(2-((3bS,4aR)-5,5-difluoro-3-(trifluoromethyl)-3b,4,4a,5-tetrahydro-1H-cyclopropa[3,4]cyclopenta[1,2-c]pyrazol-1-yl)acetamido)-2-(3,5-difluorophenyl)ethyl)-6-(3-methyl-3-(methylsulfonyl)but-1-yn-1-yl)pyridin-3-yl)-1-(2,2,2-trifluoroethyl)-1H-indazol-3-yl)-1-methyl-3-(methylsulfonyl)ureido)pyridin-3-yl)methyl dihydrogen phosphate] | – | – | – | – | 5 | 2/78 μM | 2/78 μM | 391 | 958 | –
CN(C(=O)N(c1nn(CC(F)(F)F)c2c(-c3ccc(C#CC(C)(C)S(C)(=O)=O)nc3[C@H](Cc3cc(F)cc(F)c3)NC(=O)Cn3nc(C(F)(F)F)c4c3C(F)(F)[C@@H]3C[C@H]43)ccc(Cl)c12)S(C)(=O)=O)c1ncc(C(=O)O)cc1COP(=O)(O)O [Compound 62, 6-(3-(4-chloro-7-(2-((S)-1-(2-((3bS,4aR)-5,5-difluoro-3-(trifluoromethyl)-3b,4,4a,5-tetrahydro-1H-cyclopropa[3,4]cyclopenta[1,2-c]pyrazol-1-yl)acetamido)-2-(3,5-difluorophenyl)ethyl)-6-(3-methyl-3-(methylsulfonyl)but-1-yn-1-yl)pyridin-3-yl)-1-(2,2,2-trifluoroethyl)-1H-indazol-3-yl)-1-methyl-3-(methylsulfonyl)ureido)-5-((phosphonooxy)methyl)nicotinic acid] | 1 | 67 | 490 (≈ 390 µM) | – | – | – | – | – | – | 8 ^c %
